Experimental data from US20140023611A1 (priority 2010, published 2014).

Tests used:
[1] = target: T1, human NaP2b (SLC34A2) (Homo sapiens, UniProt O95436); experiment: Inhibition of NaP2b-mediated Pi (33P) uptake in transfected HEK293 cells, human NaP2b; type: cell-based; details: read-out: pIC50 range for human NaP2b (converted)
T1 construct: host or cells: HEK293
T1 sequence (O95436 1-690): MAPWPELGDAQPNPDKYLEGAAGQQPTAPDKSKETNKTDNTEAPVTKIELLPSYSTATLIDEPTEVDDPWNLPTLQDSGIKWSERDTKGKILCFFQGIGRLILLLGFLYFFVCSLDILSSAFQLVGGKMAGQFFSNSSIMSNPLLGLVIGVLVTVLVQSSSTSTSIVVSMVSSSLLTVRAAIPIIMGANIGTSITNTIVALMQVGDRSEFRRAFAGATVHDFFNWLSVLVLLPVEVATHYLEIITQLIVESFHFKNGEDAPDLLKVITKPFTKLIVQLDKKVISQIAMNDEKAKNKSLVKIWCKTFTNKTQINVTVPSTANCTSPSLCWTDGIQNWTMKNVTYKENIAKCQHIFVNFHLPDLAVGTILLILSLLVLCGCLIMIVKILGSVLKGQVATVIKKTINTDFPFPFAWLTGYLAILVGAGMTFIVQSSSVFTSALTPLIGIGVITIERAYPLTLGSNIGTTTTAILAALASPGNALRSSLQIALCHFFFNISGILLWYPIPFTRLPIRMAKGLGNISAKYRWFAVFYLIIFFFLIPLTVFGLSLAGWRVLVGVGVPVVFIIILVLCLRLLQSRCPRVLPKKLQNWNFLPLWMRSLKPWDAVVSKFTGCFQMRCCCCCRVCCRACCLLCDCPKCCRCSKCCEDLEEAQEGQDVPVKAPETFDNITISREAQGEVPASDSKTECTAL
Method in brief: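 Uptake of 33P-phosphate (100 uM KH2PO4 carrier, sodium vs choline buffer, pH 7.4) measured after 3-30 min at room temperature, with test compound at twelve concentrations from 0.1 nM to 30 uM in duplicate. Cells were HEK293 transfected with mutated human NaP2b (Thr insertion after 37, N39D) and treated with a PiT-silencing agent. pIC50 values from scintillation counts.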

[2] = Stability of compounds in simulated gastric fluid (SGF); type: in vitro ADME; details: simulated gastric fluid (3 mg/mL pepsin), incubation time 6 hr, relative to t=0
Method in brief: (§1)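 Compounds at […] were incubated 3 or 6 hr in USP simulated gastric fluid with 3 mg/mL pepsin or simulated intestinal fluid with 3 mg/mL pancreatin. Remaining compound was quantified by HPLC-UV or HPLC-MS peak area % and reported as percent of the t=0 level in the same medium.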

[3] = test system: Uptake of Phosphorus from the Intestine; experiment: In vivo co-dosing in chow (urine P out / P consumed); details: Rattus norvegicus, feed or water, rats, compound in chow, read-out: Mean % inhibition Urine Pout/P consumed; for inhibition in vivo at 100 mg/kg/day: mean drug dose 100 mg/kg/day
Excerpt: Male, 7-week-old Sprague-Dawley rats (Charles-River laboratories international, Hollister, Calif.) were allowed to acclimate for a minimum of 3 days. The experiment was initiated by switching animals to a synthetic diet (0.6% phosphorus and 0.6% calcium, Harlan Teklad TD.84122) for four days. After this time, the animals were placed into metabolic cages for daily monitoring of food and water consumption, as well as urine and fecal collections. Test compounds were incorporated into the powdered diet listed above containing 3% chocolate flavoring (w/w, BioServ #7345) at 1.3 mg test compound per gram of diet to achieve an average daily nominal dose of 100 mg/kg/day. The actual dose received by each animal was later determined by measuring prepared diet consumption and body weight. Urine samples were collected in three daily periods from 24-48, 48-72, and 72-96 hours of drug dosing. Averaging these three 24 h periods allows for the more representative measurements of urination, fecal excretion, food consumption and water uptake for each animal. Phosphorus levels in the urine were determined by anion exchange chromatography using a Dionex ICS-3000 ion chromatography system. Urine samples were diluted 1:500 or 1:1000 and injected onto an IonPac AS18 analytical column (2×250 mm) using a potassium hydroxide eluent. Elution of urine phosphate ions was monitored via conductivity detector and reported as ppm relative to a standard ion solution containing phosphate. Daily urinary P output relative to the P consumed in the prepared diet for each animal was calculated. The percentage inhibition of phosphorus absorption was estimated by determining the reduction of this ratio compared to the control group (animals with no drug in chow). The differences between the means of control and treated groups were evaluated by t tests. In all experiments, one group was always included that had Renvela powder blended into their chow at 0.9% targeting a dose of 750 mg/kg.

[4] = target: T2, rat NaP2b (SLC34A2) (Rattus norvegicus, UniProt Q9JJ09); experiment: Inhibition of NaP2b-mediated Pi (33P) uptake in transfected HEK293 cells, rat NaP2b; type: cell-based; details: 33P Pi uptake, 0.1 mM phosphate, value given as pIC50 range
T2 construct: host or cells: HEK293
T2 sequence (Q9JJ09 1-695): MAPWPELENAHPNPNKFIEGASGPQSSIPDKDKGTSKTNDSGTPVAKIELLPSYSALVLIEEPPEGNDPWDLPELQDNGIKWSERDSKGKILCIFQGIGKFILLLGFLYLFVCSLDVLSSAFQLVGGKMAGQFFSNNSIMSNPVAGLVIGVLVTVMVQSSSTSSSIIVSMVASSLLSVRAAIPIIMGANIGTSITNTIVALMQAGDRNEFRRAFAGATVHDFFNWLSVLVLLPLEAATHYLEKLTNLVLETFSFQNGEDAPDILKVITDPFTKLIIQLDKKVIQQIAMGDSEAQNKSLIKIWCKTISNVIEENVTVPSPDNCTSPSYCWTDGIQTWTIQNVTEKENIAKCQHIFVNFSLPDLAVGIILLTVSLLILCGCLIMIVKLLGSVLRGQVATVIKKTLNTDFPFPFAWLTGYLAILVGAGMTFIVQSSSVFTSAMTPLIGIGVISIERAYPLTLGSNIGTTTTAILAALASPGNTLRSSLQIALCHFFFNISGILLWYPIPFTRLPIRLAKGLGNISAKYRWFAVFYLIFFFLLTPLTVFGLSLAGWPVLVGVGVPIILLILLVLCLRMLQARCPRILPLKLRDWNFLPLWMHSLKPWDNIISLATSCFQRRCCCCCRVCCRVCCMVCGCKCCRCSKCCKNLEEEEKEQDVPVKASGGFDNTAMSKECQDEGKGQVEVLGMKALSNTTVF
Method in brief: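 The cells transiently expressed NaP2b after Lipofectamine transfection. Each compound was run in duplicate over twelve concentrations, 0.1 nM–30 uM.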

[5] = Stability of compounds in simulated intestinal fluid (SIF); type: in vitro ADME; details: simulated intestinal fluid (3 mg/mL pancreatin), incubation time 6 hr, relative to t=0
Method in brief: as §1

[6] = Determination of compound Cmax and AUC after oral gavage (plasma LC-MS/MS); type: in vivo, Sprague-Dawley rats; details: Sprague-Dawley, rat, plasma, po, Structure (I) examples
Method in brief: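 Plasma exposure measured by LC-MS/MS after acetonitrile precipitation with internal standard, quantified against a standard curve made in plasma. Compound given orally by gavage to Sprague-Dawley rats at nominal 2.5 or 10 mg/kg, with K2EDTA plasma sampled at 0.5, 1, 2 and 4 h.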

[7] = Fecal recovery of orally administered compounds; type: in vivo, Sprague-Dawley rats; details: Structure (I) examples, Table 16; rat, oral gavage, feces collected until 48 hr after dosing
Excerpt: (§2) The animals were kept in metabolic cages and feces were collected from the time of dosing until 48 hr after dosing. Upon collection, feces were dried by lyophilization and ground to a visually homogenous powder. Duplicate samples of ground feces from each individual animal were weighed out and extracted using organic solvent. […] Extraction conditions were not optimized for individual compounds, and thus may represent a minimal level of recovery.
as §2, with “collection, feces was dried by” for “collection, feces were dried by”
as §2, with “collection, feces was dried by” for “collection, feces were dried by”
The animals were kept in metabolic cages and feces were collected from the time of dosing until 48 hr after dosing. Upon collection, feces was dried by lyophilization and ground to a visually homogenous powder. Duplicate samples of ground feces from each individual animal were weighed out and extracted using organic solvent.

[8] = Table 15, actual oral dose 15-40 mg/kg, plasma 0.5-4 h
[9] = Table 15, actual oral dose 3-15 mg/kg, plasma 0.5-4 h

CCN(CC)c1ccc(NC(=O)c2cccc(CSCCOCCOCCOCCOCCC(=O)NC(CO)(CO)CO)c2)c(-c2cc(C(=O)NCc3cccc(C(F)(F)F)c3)ccn2)c1 [Example 163, 2-(5-(diethylamino)-2-(3-(20-hydroxy-19,19-bis(hydroxymethyl)-17-oxo-5,8,11,14-tetraoxa-2-thia-18-azaicosyl)benzamido)phenyl)-N-(3-(trifluoromethyl)benzyl)isonicotinamide]
IC50 [1]: 1000 to 7940 nM
% remaining, SGF [2]: >80%
inhibition in vivo at 100 mg/kg/day [3]: ≤ 10%
IC50 [4]: 1000 to 7940 nM
% remaining, SIF [5]: 60-80%

CCN(CC)c1ccc(NC(=O)c2cccc(CCCOCCOCCOCCOCCNC(=O)c3cccc(CCCOCCOCCOCCOCCOCCOCCOCCOCCOC)c3)c2)c(-c2cc(C(=O)NCc3cccc(C(F)(F)F)c3)ccn2)c1 [Example 271, 2-(2-(3-(1-(3-(2,5,8,11,14,17,20,23,26-nonaoxanonacosan-29-yl)phenyl)-1-oxo-5,8,11,14-tetraoxa-2-azaheptadecan-17-yl)benzamido)-5-(diethylamino)phenyl)-N-(3-(trifluoromethyl)benzyl)isonicotinamide]
AUC [6, 8]: > 50 ng·h/mL
Cmax ([6]; Table 15, plasma 0.5-4 h): < 30 ng/mL
% recovered in feces [7]: 20-80%
IC50 [4]: 1000 to 7940 nM

O=C(O)CCOCCOCCOCCNC(=O)Cc1cccc(SCc2cccc(C(=O)Nc3ccc(N4CCCCC4)cc3-c3cc(C(=O)NCc4cccc(C(F)(F)F)c4)ccn3)c2)c1 [Example 137]
AUC [6, 9]: < 10 ng·h/mL
Cmax [6, 9]: < 10 ng/mL
% remaining, SGF [2]: >80%
% recovered in feces [7]: <20%
IC50 [4]: 1000 to 7940 nM
% remaining, SIF [5]: >80%

O=C(NCc1cccc(C(F)(F)F)c1)c1ccnc(-c2cc(N3CCCCC3)ccc2NC(=O)c2cccc(CSCCCO)c2)c1 [Example 8.3]
% recovered in feces [7]: <20%
IC50 [4]: 1000 to 7940 nM

CCN(CC)c1ccc(NC(=O)c2cccc(CCCOCCOCCOCCOCCC(=O)N3CCN(C(=O)c4cccc(CCCOCCOCCOCCOCCOCCOCCOCCOCCOC)c4)CC3)c2)c(-c2cc(C(=O)NCc3cccc(C(F)(F)F)c3)ccn2)c1 [Example 262, 2-(2-(3-(16-(4-(3-(2,5,8,11,14,17,20,23,26-nonaoxanonacosan-29-yl)benzoyl)piperazin-1-yl)-16-oxo-4,7,10,13-tetraoxahexadecyl)benzamido)-5-(diethylamino)phenyl)-N-(3-(trifluoromethyl)benzyl)isonicotinamide]
AUC [6, 8]: < 50 ng·h/mL
Cmax ([6]; Table 15, plasma 0.5-4 h): < 10 ng/mL
IC50 [1]: 1000 to 7940 nM
% recovered in feces [7]: 20-80%
IC50 [4]: 1000 to 7940 nM

CC(C)(SCc1cccc(C(=O)Nc2ccc(N3CCCCC3)cc2-c2cc(C(=O)NCc3cccc(C(F)(F)F)c3)ccn2)c1)C(=O)O [Example 8.6]
AUC [6, 9]: > 50 ng·h/mL
Cmax [6, 9]: < 50 ng/mL
% remaining, SGF [2]: >80%
% recovered in feces [7]: 20-80%
IC50 [4]: 1000 to 7940 nM
% remaining, SIF [5]: >80%

CCN(CC)c1ccc(NC(=O)c2cccc(CSCCOCCOCCOCCOCCC(=O)N(CCO)CCO)c2)c(-c2cc(C(=O)NCc3cccc(C(F)(F)F)c3)ccn2)c1 [Example 164, 2-(5-(diethylamino)-2-(3-(20-hydroxy-18-(2-hydroxyethyl)-17-oxo-5,8,11,14-tetraoxa-2-thia-18-azaicosyl)benzamido)phenyl)-N-(3-(trifluoromethyl)benzyl)isonicotinamide]
IC50 [1]: < 1000 nM
% remaining, SGF [2]: >80%
inhibition in vivo at 100 mg/kg/day [3]: ≤ 10%
IC50 [4]: 1000 to 7940 nM
% remaining, SIF [5]: 60-80%

CCN(CC)c1ccc(NC(=O)c2cccc(COCCOCCOCCOCCOCCOCCOCCOCCOC)c2)c(-c2cc(C(=O)NCc3cccc(C(F)(F)F)c3)ccn2)c1 [Example 173, 2-(2-(3-2,5,8,11,14,17,20,23,26-nonaoxaheptacosylbenzamido)-5-(diethylamino)phenyl)-N-(3-(trifluoromethyl)benzyl)isonicotinamide]
IC50 [1]: < 1000 nM
% remaining, SGF [2]: >80%
inhibition in vivo at 90 mg/kg/day ([3]; mean drug dose 90 mg/kg/day): ≤ 10%
IC50 [4]: < 1000 nM
% remaining, SIF [5]: >80%

CCN(CC)c1ccc(NC(=O)c2cccc(CCCOCCOCCOCCOCCNS(=O)(=O)c3ccc(CCC(=O)O)cc3)c2)c(-c2cc(C(=O)NCc3cccc(C(F)(F)F)c3)ccn2)c1 [Example 294, 3-(4-(N-(15-(3-(4-(diethylamino)-2-(4-(3-(trifluoromethyl)benzylcarbamoyl)pyridin-2-yl)phenylcarbamoyl)phenyl)-3,6,9,12-tetraoxapentadecyl)sulfamoyl)phenyl)propanoic acid]
AUC [6, 9]: > 50 ng·h/mL
Cmax [6, 9]: < 10 ng/mL
IC50 [1]: < 1000 nM
% recovered in feces [7]: >80%
IC50 [4]: < 1000 nM
